In patent US6620418B1, “Antiseptic/antifungal agent and endermic liniment composition which contains it” (Shiseido Company, Ltd., priority 1999, dated 2003):

Tested on: Mold, yeast, and bacteria
Assay: The antiseptic effectiveness evaluation test
Type: cell-based
Method: The Antiseptic Effectiveness Evaluation Test 30 ml of the sample was inoculated with microbe-containing fluid, and the change in the number of microbes was checked with the smearing method. Mold, yeast, and bacteria were used as the inoculation microbes. The antiseptic effectiveness was evaluated based on the changes in the number of the microbes in two weeks, and the obtained results were classified by using the following four step criterion. […] X: No reduction in microbes was observed.

CCCCC(CC)(CO)CO [2-n-butyl-2-ethyl-1,3-propanediol]
concentration at which an adequate effect on bacteria was confirmed (1,3-butylene glycol additionally blended into the composition): 0.1% | concentration of 2-n-butyl-2-ethyl-1,3-propanediol at which the compositions showed adequate antiseptic effectiveness (lotions of Table 1-2, effect on all the mold, yeast, and bacteria): ≥ 0.5%
